In US20030100550A1, “Carboxamide diazepin derivatives, preparation method, use as medicines, pharmaceutical compositions and use thereof” (priority 2002, published 2003):

biological target: T1, Cathepsin K (Homo sapiens, UniProt P43235); experiment: Study of Cathepsin K inhibition (fluorescence, Z-Val-arg-AMC); format: biochemical; conditions: printed beside 20 μM; meaning not explained
T1 sequence (P43235 115-329): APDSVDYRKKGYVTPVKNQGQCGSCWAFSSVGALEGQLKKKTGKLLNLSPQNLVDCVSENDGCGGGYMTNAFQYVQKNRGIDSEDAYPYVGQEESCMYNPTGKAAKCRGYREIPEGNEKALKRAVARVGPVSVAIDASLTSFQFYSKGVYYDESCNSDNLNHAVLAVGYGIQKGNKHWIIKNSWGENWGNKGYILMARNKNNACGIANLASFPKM
Procedure: Study of Cathepsin K Inhibition:
(§1) The products to be tested (10 mM) are diluted to […] in DMSO and distributed into Nunc polystyrene 96 well plates at a rate of 2 μl per well. Column 12 of the plate is reserved for the controls and therefore receives […] of DMSO (without products) per well. The plates are stored at −80° C. and thawed on the day of the experiment.
(§2) The products are diluted to 50 μM by adding 38 μl of reaction buffer: sodium acetate 100 mM, EDTA 5 mM, DTT […] pH 5.5. The addition as well as all the operations by pipette are carried out with a CybiWell 96 tip pipette. After mixing the solutions, each product is transferred into 2 wells (duplicates) of a Greiner black 384 well plate at a rate of 10 μl per well. Two 96-well plates can therefore be tested in a 384-well plate.
(§3) A solution of substrate at 50 μM, Z-Val-arg-AMC (Calbiochem), is prepared in the reaction buffer. The substrate, is then distributed into all the wells of the 384-well plate (20 μl per well).
(§4) A solution of Cathepsin K at 12.5 ng/ml is prepared in the reaction buffer and distributed into all the wells of the 384-well plate (20 μl per well) except for the 16 wells serving as 100% inhibition controls (column 23 and 24, lines I to P) which receive 20 μl of enzyme-free buffer.
(§5) The plates are then incubated 2H at ambient temperature, then read on Fluoroskan (Labsystems): excitation 390 nm; emission 460 nm
(§6) The final concentrations of each of the reagents are: products 10 μM, substrate 20 μM, enzyme 5 ng/ml.
(§7) The % inhibition for each of the products is calculated by using points at 0 and 100% inhibition of each plate as references. The products presenting a significant inhibition are then retested on a range of concentrations from 50 to 0.5 μM to determine an IC50.

Compound	Cathepsin K, percentage in parentheses beside IC50 value (% inhibition)
C=CCOC(=O)CC[C@H](NC(=O)[C@@H]1CCCN2C(=O)CCC[C@H](NC(=O)Nc3ccc(Oc4ccccc4)cc3)C(=O)N12)C(=O)COC(C)=O [Example 133]	25%

same assay, conditions: substrate Z-Val-arg-AMC 20 μM, enzyme 5 ng/ml, 2H at ambient temperature; read-out: Cathepsin K IC50

Compound	IC50
[N-]=[N+]=CC(=O)[C@H](Cc1ccccc1)NC(=O)[C@@H]1CCCN2C(=O)CC[C@H](NS(=O)(=O)c3ccc4ccccc4c3)C(=O)N12 [Example 165, 9-[(9S)-[(2-naphthalenyl)sulphonyl]amino]-N-( (2S)-4-diazo-1-phenyl-3-oxo-2-butyl)-octahydro-6,10-dioxo-6H-(1S)-pyridazino[1,2-a][1,2]diazepine-1-carboxamide]	20 µM
CC(C)C[C@H](NC(=O)[C@@H]1CCCN2C(=O)CC[C@H](NS(=O)(=O)c3ccc4ccccc4c3)C(=O)N12)C(=O)C=[N+]=[N-] [Example 348, 9-[(9S)-[(2-naphthalenyl)sulphonyl]amino]-N-((3S)-1-diazo-5-methyl-2-oxo-3-hexyl)-octahydro-6,10-dioxo-6H-(1S)-pyridazino[1,2-a][1,2]diazepine-1-carboxamide]	10 µM
C=CCOC(=O)CC[C@H](NC(=O)[C@@H]1CCCN2C(=O)CCC[C@H](NC(=O)Nc3ccc(Oc4ccccc4)cc3)C(=O)N12)C(=O)COC(C)=O [Example 133]	20 µM
C=CCOC(=O)CCC(NC(=O)C1CCCN2C(=O)CCC(NC(=O)NCCc3cccs3)C(=O)N12)C(=O)CSc1nnnn1-c1ccccc1 [Example 138, (2-propenyl)(4S)6-[(1-phenyl-1H-tetrazol-5-yl)thio]-4-[[[(1S,9S)-^9-[[[[^2-(thien-2-yl)-ethyl]amino]carbonyl]amino]-octahydro-6,10-dioxo-6H-pyridazino[1,2-a][1,2]diazepine-1-yl]carbonyl]amino]-5-oxo-hexanoate]	29 µM
C=CCOC(=O)CC[C@H](NC(=O)[C@@H]1CCCN2C(=O)CC[C@H](NS(C)(=O)=O)C(=O)N12)C(=O)C=[N+]=[N-] [Example 45, (2-propenyl)(4S)6-diazo-4-[[[(1S,9S)-9-[(methylsulphonyl)amino]-octahydro-6,10-dioxo-6H-pyridazino[1,2-a][l,2]diazepine-1-yl]carbonyl]amino]-5-oxo-hexanoate]	0.9 µM
CC(C)C[C@H](NC(=O)[C@@H]1CCCN2C(=O)CC[C@H](NC(=O)NC3CCCCC3)C(=O)N12)C(=O)C=[N+]=[N-] [Example 343, 9-[(9S)-[(cyclohexylamino)carbonyl]amino]-N-((3S)-1-diazo-5-methyl-2-oxo-3-hexyl)-octahydro-6,10-dioxo-6H-(1S)-pyridazino[1,2-a][1,2]diazepine-1-carboxamide]	14 µM
O=C(Nc1ccc(Oc2ccccc2)cc1)N[C@H]1CCC(=O)N2CCC[C@@H](C(=O)N[C@@H](Cc3ccccc3)C(=O)CN3CCC(Cc4ccccc4)CC3)N2C1=O [Example 218, 9-[(9S)-[[(4-phenoxyphenyl)amino]carbonyl]amino]-N-[(2S)-4-[(4-phenylmethyl)-1-piperidinyl]-1-phenyl-3-oxo-2-butyl]-octahydro-6,10-dioxo-6H-(1S)-pyridazino[1,2-a][1,2]diazepine-1-carboxamide]	20 µM
CC(C)C[C@H](NC(=O)[C@@H]1CCCN2C(=O)CC[C@H](NS(C)(=O)=O)C(=O)N12)C(=O)C=[N+]=[N-] [Example 346, 9-[(9S)-(methylsulphonyl)amino]-N-((3S)-1-diazo-5-methyl-2-oxo-3-hexyl)-octahydro-6,10-dioxo-6H-(1S)-pyridazino[1,2-a][1,2]diazepine-1-carboxamide]	6 µM
CC(C)C[C@H](NC(=O)[C@@H]1CCCN2C(=O)CC[C@H](NC(=O)C(C)C)C(=O)N12)C(=O)C=[N+]=[N-] [Example 339, 9-[(9S)-(2-methyl-1-oxo-propyl)amino]-N-((3S)-1-diazo-5-methyl-2-oxo-3-hexyl)-octahydro-6,10-dioxo-6H-(1S)-pyridazino[1,2-a][1,2]diazepine-1-carboxamide]	10 µM
CC(C)C[C@H](NC(=O)[C@@H]1CCCN2C(=O)CC[C@H](NC(=O)NCCc3cccs3)C(=O)N12)C(=O)C=[N+]=[N-] [Example 345, 9-[(9S)-[[[2-(thien-2-yl)-ethyl]amino]carbonyl]amino]-N-((3S)-1-diazo-5-methyl-2-oxo-3-hexyl)-octahydro-6,10-dioxo-6H-(1S)-pyridazino[1,2-a][1,2]diazepine-1-carboxamide]	5 µM
C=CCOC(=O)CC[C@H](NC(=O)[C@@H]1CCCN2C(=O)CC[C@H](NC(=O)c3ccco3)C(=O)N12)C(=O)C=[N+]=[N-] [Example 40, (2-propenyl)(4S)6-diazo-4-[[[(1S,9S)-9-[[(2-furanyl)carbonyl]amino]-octahydro-6,10-dioxo-6H-pyridazino[1,2-a][1,2]diazepine-1-yl]carbonyl]amino]-5-oxo-hexanoate]	1.8 µM
C=CCOC(=O)CC[C@H](NC(=O)[C@@H]1CCCN2C(=O)CC[C@H](NS(=O)(=O)c3ccc(C(F)(F)F)cc3)C(=O)N12)C(=O)C=[N+]=[N-] [Example 46, (2-propenyl)(4S)6-diazo-4-[[[(1S,9S)-9-[[[4-(trifluoromethyl)phenyl]sulphonyl]amino]-octahydro-6,10-dioxo-6H-pyridazino[1,2-a][1,2]diazepine-1-yl]carbonyl]amino]-5-oxo-hexanoate]	6 µM

biological target: T2, Cathepsin B (Homo sapiens, UniProt P07858); experiment: Study of Cathepsin B inhibition (fluorescence, Z-arg-arg-AMC); format: biochemical; conditions: substrate Z-arg-arg-AMC 20 μM, enzyme 16 ng/ml, 1 hour at ambient temperature
T2 construct: purchased Calbiochem
Procedure: as §1, §2, §3, §4, §5, §6, §7
Study of Cathepsin B Inhibition:
Protocol identical to that of Cathepsin K except for:
Z-arg-arg-AMC substrate (Calbiochem), solution at 50 μM, final concentration 20 μM
Cathepsin B (Calbiochem), solution at 40 ng/ml, final concentration 16 ng/ml
Incubation for 1 hour at ambient temperature

Compound	IC50
C[C@H](NC(=O)[C@@H]1CCCN2C(=O)CC[C@H](NS(=O)(=O)c3ccc(C(F)(F)F)cc3)C(=O)N12)C(=O)COC(=O)c1c(Cl)cccc1Cl [Example 481, 9-[(9S)-[[4-(trifluoromethyl)phenyl]sulphonyl]amino]-N-[(2S)-4-[(2,6-dichlorobenzoyl)oxy]-3-oxo-2-butyl]-octahydro-6,10-dioxo-6H-(1S)-pyridazino[1,2-a][1,2]diazepine-1-carboxamide]	6 µM
COc1cccc(C(=O)N[C@H]2CCC(=O)N3CCC[C@@H](C(=O)N[C@@H](C)C(=O)COC(=O)c4c(Cl)cccc4Cl)N3C2=O)c1 [Example 463, 9-[(9S)-(3-methoxybenzoyl)amino]-N-[(2S)-4-[(2,6-dichlorobenzoyl)oxy]-3-oxo-2-butyl]-octahydro-6,10-dioxo-6H-(1S)-pyridazino[1,2-a][1,2]diazepine-1-carboxamide]	1.5 µM
C[C@H](NC(=O)[C@@H]1CCCN2C(=O)CC[C@H](NC(=O)c3ccco3)C(=O)N12)C(=O)COC(=O)c1c(Cl)cccc1Cl [Example 443, 9-[(9S)-[(2-furanyl)carbonyl]amino]-N-[(2S)-4-[(2,6-dichlorobenzoyl)oxy]-3-oxo-2-butyl]-octahydro-6,10-dioxo-6H-(1S)-pyridazino[1,2-a][1,2]diazepine-1-carboxamide]	5 µM
COc1cccc(C(=O)N[C@H]2CCC(=O)N3CCC[C@@H](C(=O)N[C@@H](Cc4ccccc4)C(=O)COC(=O)c4c(Cl)cccc4Cl)N3C2=O)c1 [Example 185, 9-[(9S)-(3-methoxybenzoyl)amino]-N-((2S)-4-[(2,6-dichlorobenzoyl)oxy]-1-phenyl-3-oxo-2-butyl]-octahydro-6,10-dioxo-6H-(1S)-pyridazino[1,2-a][1,2]diazepine-1-carboxamide]	7 µM
C=CCOC(=O)CC[C@H](NC(=O)[C@@H]1CCCN2C(=O)CC[C@H](NS(=O)(=O)c3ccc(C(F)(F)F)cc3)C(=O)N12)C(=O)COC(=O)c1c(Cl)cccc1Cl [Example 101, (2-propenyl)(4S)6-[(2,6-dichlorobenzoyl)oxy]-4-[[[(1S,9S)-9-[[[4-(trifluoromethyl)phenyl]sulphonyl]amino]-octahydro-6,10-dioxo-6H-pyridazino[1,2-a][1,2]diazepine-1-yl]carbonyl]amino]-5-oxo-hexanoate]	6 µM
CC(C)C[C@H](NC(=O)[C@@H]1CCCN2C(=O)CC[C@H](NS(=O)(=O)c3ccc(C(F)(F)F)cc3)C(=O)N12)C(=O)COC(=O)c1c(Cl)cccc1Cl [Example 313, 9-[(9S)-[[[4-(trifluoromethyl)phenyl]sulphonyl]amino]]-N-[(3S)-5-methyl-1-[(2,6-dichlorobenzoyl)oxy]-2-oxo-3-hexyl]-octahydro-6,10-dioxo-6H-(1S)-pyridazino[1,2-a][1,2]diazepine-1-carboxamide]	5 µM
